Assay results reported in patent US10076550B2, “Synergistic pharmaceutical composition for gastroinestinal disorders” (COUNCIL OF SCIENTIFIC & INDUSTRIAL RESEARCH, priority 2014, dated 2018).
Where a name gives a salt, the structure may show the parent alone. Marks after values point to notes of the source that are not given here.

How the values were obtained:
Assay type in all cases: in vivo
[1] = system: castor-oil induced diarrhea; test: castor oil induced diarrhea in rats; conditions: reference drug 5.0 mg/kg p.o., 2 mL castor oil after 60 min, observed 4 h
Description: The efficacy of composition as an antidiarrheal agent was evaluated using castor oil induced diarrhea. The castor oil model has been an extensively used pharmacological test to screen and evaluate antidiarrheal properties of drugs in rats. The liberation of ricinoleic acid from castor oil results in irritation and inflammation of intestinal mucosa, leading to release of prostaglandins, which stimulates motility and secretion (Pierce, N. F., Carpenter. C. C. J., Elliiot, H. Z. and Greenough, W. B., Effects of prostaglandins, Theophylline and cholera exotoxin upon transmucosalwater and electrolyte movement in canine jejunum, Gastroenterology, 1971; 60: 22-32). Castor oil is also reported to induce diarrhea by increasing the volume of intestinal content by prevention of the reabsorption of water. […] After 60 min each animal was given with 2 mL of castor oil by orogastric cannula, and placed in a separate cage and observed for 4 h defecation the characteristic diarrheal droppings were noted and recorded.
The castor oil model has been an extensively used pharmacological test to screen and evaluate antidiarrheal properties of drugs in rats. […] After 60 min each animal was given with 2 mL of castor oil by orogastric cannula, and placed in a separate cage and observed for 4 h defecation the characteristic diarrheal droppings were noted and recorded.

ethanol induced ulcers = ethanol induced ulcers in rats; conditions: EtOH 1 ml/200 g, positive control, dose given as 50, mean ± SEM, six rats
Description: Further, effect of the composition was evaluated using ethanolinduced ulcer model. […] The ulcer index was scored, based upon the product of length and width of the ulcers present in the glandular portion of the stomach (mm^2/rat).
The ulcer index was scored, based upon the product of length and width of the ulcers present in the glandular portion of the stomach (mm^2/rat).

[2] = system: cold restrained stress (CRS) induced ulcers; test: cold restrained stress (CRS) induced ulcers in rats; conditions: positive control, dose given as 50, mean ± SEM, six rats
Description: The effect of composition was further observed on cold resistant stress model of ulcer. […] Rats were starved for 48 hours, and the drinking solution was removed 1 hour before starting experiments. For cold-restraint s tress, the rats were restrained in individual close-fitting tubular wire-mesh cages at 4° C. […] At the end of 2 hours, all the rats were sacrificed. The ulcer index was scored, based upon the product of length and width of the ulcers present in the glandular portion of the stomach (mm^2/rat).
The effect of composition was further observed on cold resistant stress model of ulcer. […] Rats were starved for 48 hours, and the drinking solution was removed 1 hour before starting experiments. For cold-restraint stress, the rats were restrained in individual close-fitting tubular wire-mesh cages at 4° C.

aspirin induced ulcers = aspirin induced ulcers in rats; conditions: aspirin 200 mg/kg, positive control, dose given as 50, mean ± SEM, six rats
Description: The effect of the composition on ulcers was evaluated using aspirin induced ulcer model. […] Ulcers were scored after 4 h. The animals were sacrificed and the stomach was then excised and cut along the greater curvature, washed carefully with 5.0 ml of 0.9% NaCl and ulcers were scored in the glandular portion of the stomach. Ulcer index was calculated by adding the total number of ulcers per stomach and the total severity of ulcers per stomach.
The effect of the composition on ulcers was evaluated using aspirin induced ulcer model.

[3] = system: pylorus ligation induced ulcers; test: pylorus ligation (PL) induced ulcers in rats; conditions: positive control, dose given as 50, mean ± SEM, six rats
Description: The effect of the composition as an antiulcer agent was further justified using pylorus ligation (PL)-induced ulcer model. […] The mentioned drugs were administered for a period of 5 days as described above and the rats were kept for 18 h fasting and care was taken to avoid coprophagy. Animals were anaesthetized and the abdomen was opened and pylorus ligation was done without causing any damage to its blood supply. After 4 h, stomachs were dissected out and cut open along the greater curvature and ulcers were scored in the glandular portion of the stomach as mentioned in aspirin induced ulcers.
The effect of the composition as an antiulcer agent was further justified using pylorus ligation (PL)-induced ulcer model.
The mentioned drugs were administered for a period of 5 days as described above and the rats were kept for 18 h fasting and care was taken to avoid coprophagy. Animals were anaesthetized and the abdomen was opened and pylorus ligation was done without causing any damage to its blood supply. After 4 h, stomachs were dissected out and cut open along the greater curvature and ulcers were scored in the glandular portion of the stomach as mentioned in aspirin induced ulcers.

Compound	Total number of faecal matter [1]	Ulcer Index (ethanol induced ulcers)	Ulcer Index [2]	Ulcer Index (aspirin induced ulcers)	Ulcer Index [3]
CCOC(=O)C1(c2ccccc2)CCN(CCC(C#N)(c2ccccc2)c2ccccc2)CC1 [DiphenoxylateHCl, diphenoxylate HCl]	19	–	–	–	–
CNC(=C[N+](=O)[O-])NCCSCc1ccc(CN(C)C)o1 [Ranitidine, ranitidine]	–	10.3 ± 2.8^a mm^2/rat	6.9 ± 1.0^c mm^2/rat	7.6 ± 1.4^a	4.9 ± 1.3^b
